Counter-ions that a name gives are not always drawn. Like-named read-outs stand apart in the source and are kept apart here.
Assays:
Test in all cases: AK assay 384-well format, Prestwick library screening
K. pneumoniae = assay type: cell-based, Klebsiella pneumoniae; conditions: 50 μM final drug concentration; for fold induction at 50 µM: Klebsiella pneumoniae, 3 h
[1] = test system: S. aureus strain USA300-0114; assay type: cell-based, Staphylococcus aureus; conditions: 50 μM final drug concentration; for fold induction at 50 µM: Staphylococcus aureus, USA300, 3 h
E. faecium = assay type: cell-based, Enterococcus faecium; conditions: 50 μM final drug concentration; for fold induction at 50 µM: Enterococcus faecium, 3 h
E. cloacae = assay type: cell-based, Enterobacter cloacae; conditions: 50 μM final drug concentration; for fold induction at 50 µM: Enterobacter cloacae, 3 h
P. aeruginosa = assay type: cell-based, Pseudomonas aeruginosa; conditions: 50 μM final drug concentration; for fold induction at 50 µM: Pseudomonas aeruginosa, 3 h
[2] = test system: A. baumannii strain 98-37-09; assay type: cell-based, Acinetobacter baumannii; conditions: 50 μM final drug concentration; for fold induction at 50 µM: Acinetobacter baumannii, 983709, 3 h
E. coli = assay type: cell-based, Escherichia coli; conditions: 50 μM final drug concentration; for fold induction at 50 µM: Escherichia coli, 3 h
[3] = planktonic, cutoff for positive 3-fold increase
[4] = planktonic K. pneumoniae, 384-well, cutoff for positive-scoring molecules 3-fold increase, read-out: AK-based Prestwick Library Screening Results: K. pneumoniae (increase in extracellular AK activity)
[5] = planktonic S. aureus, 384-well, cutoff for positive-scoring molecules 3-fold increase, read-out: AK-based Prestwick Library Screening Results: S. aureus (increase in extracellular AK activity)
[6] = planktonic E. faecium, 384-well, cutoff for positive-scoring molecules 3-fold increase, read-out: AK-based Prestwick Library Screening Results: E. faecium (increase in extracellular AK activity)
[7] = planktonic E. cloacae, 384-well, cutoff for positive-scoring molecules 3-fold increase, read-out: AK-based Prestwick Library Screening Results: E. cloacae (increase in extracellular AK activity)
[8] = planktonic P. aeruginosa, 384-well, cutoff for positive-scoring molecules 3-fold increase, read-out: AK-based Prestwick Library Screening Results: P. aeruginosa (increase in extracellular AK activity)
[9] = planktonic A. baumannii, 384-well, cutoff for positive-scoring molecules 3-fold increase, read-out: AK-based Prestwick Library Screening Results: A. baumannii (increase in extracellular AK activity)
[10] = planktonic E. coli, 384-well, cutoff for positive-scoring molecules 3-fold increase, read-out: AK-based Prestwick Library Screening Results: E. coli (increase in extracellular AK activity)

**Q.** Which fold induction at 50 µM (K. pneumoniae; […], read-out: AK-based Prestwick Library Screening Results, K. pneumoniae (fold increase in extracellular AK activity)) does the source give for `O=c1ccc2cc(O)c(O)cc2o1` [Esculetin] here?
**A.** 1.2

**Q.** What about the fold induction at 50 µM ([1]; […], read-out: AK-based Prestwick Library Screening Results, S. aureus (fold increase in extracellular AK activity)) of the same molecule?
**A.** 1.1

**Q.** And the fold induction at 50 µM (E. faecium; […], read-out: AK-based Prestwick Library Screening Results, E. faecium (fold increase in extracellular AK activity))?
**A.** 1

**Q.** And the fold induction at 50 µM (E. cloacae; […], read-out: AK-based Prestwick Library Screening Results, E. cloacae (fold increase in extracellular AK activity))?
**A.** 1.4

**Q.** And the fold induction at 50 µM (P. aeruginosa; […], read-out: AK-based Prestwick Library Screening Results, P. aeruginosa (fold increase in extracellular AK activity))?
**A.** 0.9

**Q.** What about the fold induction at 50 µM ([2]; […], read-out: AK-based Prestwick Library Screening Results, A. baumannii (fold increase in extracellular AK activity)) of the same molecule?
**A.** 1.1

**Q.** And the fold induction at 50 µM (E. coli; […], read-out: AK-based Prestwick Library Screening Results, E. coli (fold increase in extracellular AK activity))?
**A.** 1.4

**Q.** What does the source list for `N=C(N)NCCN1CCCCCCC1` [Guanethidine sulfate]?
**A.** fold induction at 50 µM (K. pneumoniae; planktonic K. pneumoniae, 384-well, […], read-out: AK-based Prestwick Library Screening Results: K. pneumoniae (increase in extracellular AK activity)): 1.1; fold induction at 50 µM ([1]; planktonic S. aureus, 384-well, […], read-out: AK-based Prestwick Library Screening Results: S. aureus (increase in extracellular AK activity)): 1.1; fold induction at 50 µM (E. faecium; planktonic E. faecium, 384-well, […], read-out: AK-based Prestwick Library Screening Results: E. faecium (increase in extracellular AK activity)): 1.1; fold induction at 50 µM (E. cloacae; planktonic E. cloacae, 384-well, […], read-out: AK-based Prestwick Library Screening Results: E. cloacae (increase in extracellular AK activity)): 1.4; fold induction at 50 µM (P. aeruginosa; planktonic P. aeruginosa, 384-well, […], read-out: AK-based Prestwick Library Screening Results: P. aeruginosa (increase in extracellular AK activity)): 1.4; fold induction at 50 µM ([2]; planktonic A. baumannii, 384-well, […], read-out: AK-based Prestwick Library Screening Results: A. baumannii (increase in extracellular AK activity)): 1.3; fold induction at 50 µM (E. coli; planktonic E. coli, 384-well, […], read-out: AK-based Prestwick Library Screening Results: E. coli (increase in extracellular AK activity)): 1.4

**Q.** `CS(=N)(=O)CC[C@H](N)C(=O)O` (some centres unmarked) [Methionine sulfoximine (L)] was tested. Which “AK-based Prestwick Library Screening Results, K. pneumoniae (fold increase in extracellular AK activity)” value (K. pneumoniae; [3]) did it give?
**A.** 0.9

**Q.** And the “AK-based Prestwick Library Screening Results, S. aureus (fold increase in extracellular AK activity)” value [1, 3]?
**A.** 1.1

**Q.** And the “AK-based Prestwick Library Screening Results, E. faecium (fold increase in extracellular AK activity)” value (E. faecium; [3])?
**A.** 1.0

**Q.** And the “AK-based Prestwick Library Screening Results, E. cloacae (fold increase in extracellular AK activity)” value (E. cloacae; [3])?
**A.** 1.5

**Q.** What about the “AK-based Prestwick Library Screening Results, P. aeruginosa (fold increase in extracellular AK activity)” value (P. aeruginosa; [3]) of the same molecule?
**A.** 1.2

**Q.** And the “AK-based Prestwick Library Screening Results, A. baumannii (fold increase in extracellular AK activity)” value [2, 3]?
**A.** 1.0

**Q.** And the “AK-based Prestwick Library Screening Results, E. coli (fold increase in extracellular AK activity)” value (E. coli; [3])?
**A.** 1.3

**Q.** With `C/C(=C(\CCOP(=O)(O)O)SC(=O)c1ccccc1)N(C=O)Cc1cnc(C)nc1N` [Benfotiamine] as the molecule, how does the fold induction at 50 µM (K. pneumoniae; planktonic, cutoff for positive-scoring molecules 3-fold increase, read-out: AK-based Prestwick Library Screening Results, K. pneumoniae (fold increase in extracellular AK activity)) read?
**A.** 0.6

**Q.** What about the fold induction at 50 µM ([1]; planktonic, cutoff for positive-scoring molecules 3-fold increase, read-out: AK-based Prestwick Library Screening Results, S. aureus (fold increase in extracellular AK activity)) of the same molecule?
**A.** 0.5

**Q.** What about the fold induction at 50 µM (E. faecium; planktonic, cutoff for positive-scoring molecules 3-fold increase, read-out: AK-based Prestwick Library Screening Results, E. faecium (fold increase in extracellular AK activity)) of the same molecule?
**A.** 0.9

**Q.** And the fold induction at 50 µM (E. cloacae; planktonic, cutoff for positive-scoring molecules 3-fold increase, read-out: AK-based Prestwick Library Screening Results, E. cloacae (fold increase in extracellular AK activity))?
**A.** 0.8

**Q.** What about the fold induction at 50 µM (P. aeruginosa; planktonic, cutoff for positive-scoring molecules 3-fold increase, read-out: AK-based Prestwick Library Screening Results, P. aeruginosa (fold increase in extracellular AK activity)) of the same molecule?
**A.** 0.6

**Q.** What about the fold induction at 50 µM ([2]; planktonic, cutoff for positive-scoring molecules 3-fold increase, read-out: AK-based Prestwick Library Screening Results, A. baumannii (fold increase in extracellular AK activity)) of the same molecule?
**A.** 0.7

**Q.** What about the fold induction at 50 µM (E. coli; planktonic, cutoff for positive-scoring molecules 3-fold increase, read-out: AK-based Prestwick Library Screening Results, E. coli (fold increase in extracellular AK activity)) of the same molecule?
**A.** 0.7

**Q.** For `CCCNC(C)C(=O)Nc1c(C)csc1C(=O)OC` (centres unmarked) [Articaine hydrochloride], which fold induction at 50 µM (K. pneumoniae; planktonic K. pneumoniae, positive cutoff 3-fold increase, read-out: AK-based Prestwick library screening result, K. pneumoniae (fold increase in extracellular AK activity)) is on record?
**A.** 1.1

**Q.** What about the fold induction at 50 µM ([1]; planktonic S. aureus, positive cutoff 3-fold increase, read-out: AK-based Prestwick library screening result, S. aureus (fold increase in extracellular AK activity)) of the same molecule?
**A.** 1.1

**Q.** And the fold induction at 50 µM (E. faecium; planktonic E. faecium, positive cutoff 3-fold increase, read-out: AK-based Prestwick library screening result, E. faecium (fold increase in extracellular AK activity))?
**A.** 1.2

**Q.** What about the fold induction at 50 µM (E. cloacae; planktonic E. cloacae, positive cutoff 3-fold increase, read-out: AK-based Prestwick library screening result, E. cloacae (fold increase in extracellular AK activity)) of the same molecule?
**A.** 1.6

**Q.** What about the fold induction at 50 µM (P. aeruginosa; planktonic P. aeruginosa, positive cutoff 3-fold increase, read-out: AK-based Prestwick library screening result, P. aeruginosa (fold increase in extracellular AK activity)) of the same molecule?
**A.** 1

**Q.** What about the fold induction at 50 µM ([2]; planktonic A. baumannii, positive cutoff 3-fold increase, read-out: AK-based Prestwick library screening result, A. baumannii (fold increase in extracellular AK activity)) of the same molecule?
**A.** 1.2

**Q.** What about the fold induction at 50 µM (E. coli; planktonic E. coli, positive cutoff 3-fold increase, read-out: AK-based Prestwick library screening result, E. coli (fold increase in extracellular AK activity)) of the same molecule?
**A.** 1.1

**Q.** With `CN(C)[C@@H]1C(O)=C(C(N)=O)C(=O)[C@@]2(O)C(O)=C3C(=O)c4c(O)ccc(Cl)c4[C@@](C)(O)[C@H]3C[C@@H]12` [Chlortetracycline hydrochloride] as the molecule, how does the fold induction at 50 µM (K. pneumoniae; [4]) read?
**A.** 0.2

**Q.** And the fold induction at 50 µM [1, 5]?
**A.** 6.8

**Q.** And the fold induction at 50 µM (E. faecium; [6])?
**A.** 0.9

**Q.** What about the fold induction at 50 µM (E. cloacae; [7]) of the same molecule?
**A.** 1

**Q.** And the fold induction at 50 µM (P. aeruginosa; [8])?
**A.** 0.7

**Q.** And the fold induction at 50 µM [2, 9]?
**A.** 3.9

**Q.** What about the fold induction at 50 µM (E. coli; [10]) of the same molecule?
**A.** 0.8

**Q.** What does the source list for `CC(C)(Sc1cc(C(C)(C)C)c(O)c(C(C)(C)C)c1)Sc1cc(C(C)(C)C)c(O)c(C(C)(C)C)c1` [Probucol]?
**A.** fold induction at 50 µM (K. pneumoniae; planktonic, cutoff for positive 3-fold increase, read-out: AK-based Prestwick Library Screening Results, K. pneumoniae (fold increase in extracellular AK activity)): 0.9; fold induction at 50 µM ([1]; planktonic, cutoff for positive 3-fold increase, read-out: AK-based Prestwick Library Screening Results, S. aureus (fold increase in extracellular AK activity)): 0.6; fold induction at 50 µM (E. faecium; planktonic, cutoff for positive 3-fold increase, read-out: AK-based Prestwick Library Screening Results, E. faecium (fold increase in extracellular AK activity)): 0.9; fold induction at 50 µM (E. cloacae; planktonic, cutoff for positive 3-fold increase, read-out: AK-based Prestwick Library Screening Results, E. cloacae (fold increase in extracellular AK activity)): 1.3; fold induction at 50 µM (P. aeruginosa; planktonic, cutoff for positive 3-fold increase, read-out: AK-based Prestwick Library Screening Results, P. aeruginosa (fold increase in extracellular AK activity)): 1.1; fold induction at 50 µM ([2]; planktonic, cutoff for positive 3-fold increase, read-out: AK-based Prestwick Library Screening Results, A. baumannii (fold increase in extracellular AK activity)): 1.4; fold induction at 50 µM (E. coli; planktonic, cutoff for positive 3-fold increase, read-out: AK-based Prestwick Library Screening Results, E. coli (fold increase in extracellular AK activity)): 1.1

**Q.** Which results are given for `CCn1cc(C(=O)O)c(=O)c2cc(F)c(N3CCNCC3)cc21` [Norfloxacin]?
**A.** fold induction at 50 µM (K. pneumoniae; [4]): 0.8; fold induction at 50 µM [1, 5]: 1.8; fold induction at 50 µM (E. faecium; [6]): 1.5; fold induction at 50 µM (E. cloacae; [7]): 3.1; fold induction at 50 µM (P. aeruginosa; [8]): 31.3; fold induction at 50 µM [2, 9]: 3.1; fold induction at 50 µM (E. coli; [10]): 33.1
